Assay results published in paper PMC12019880 (Frontiers in Pharmacology, 2025).
Values joined by “and” are separate entries in the source; they are usually repeats but may differ in a detail not shown here. Equal entries are not always repeated.

Legend:
[1] = test system: Na^+ current of larger diameter DRG neurons; format: cell-based, mouse
[2] = test system: TTX-S Na^+ currents from adult mouse DRG neurons
hNav1.7 = hNav1.7 (Homo sapiens, UniProt Q15858); assay: automated patch-clamp, hNav1.7 stably expressed in CHO cells; format: cell-based
Experimental: (§1) CHO cells stably expressing hNav1.7 were cultured in Dulbecco’s Modified Eagle’s Medium (DMEM) supplemented with 10% foetal calf serum, 1 mM pyruvic acid, 4 mM glutamine, 10 U/mL penicillin and 10 μg/mL streptomycin (Gibco, Grand Island, NY), and incubated at 37°C in a 5% CO2 atmosphere. For electrophysiological recordings, cells were detached with trypsin and floating single cells were diluted (∼300,000 cells/mL) in medium containing (in mM): 4 KCl, 140 NaCl, five glucose, 10 2-[4-(2-hydroxyethyl)piperazin-1-yl]ethanesulfonic acid (HEPES, pH 7.4, osmolarity 290 mOsm). Similar culturing conditions were used for HEK-293 cell lines expressing hNav1.1, hNav1.2, hNav1.3, hNav1.5 and hNav1.6 channels. The plasmid pcDNA3.1+/C-(K)-DYK (Genscript, Piscataway, New Jersey, USA) was used for transient expression of mNav1.7 in HEK-293T cells using the Maxcyte electroporation system.
(§2) Chips with single-hole and high-resistance 5.14 ± 0.02 MΩ (n = 384) were used for HEK-293 cell recordings. Only cells with seal resistance above 500 MΩ and Rs values <15 MΩ were kept for analyses. All Rs values were compensated at 90%. Voltage pulses and whole-cell recordings were achieved using the PatchControl384 v1.5.3 software (Nanion Technologies, Munich, Germany) and the Biomek v1.0 interface (Beckman Coulter, Villepinte, France). Prior to recordings, dissociated cells were shaken at 60 rpm in a cell hotel reservoir at 10°C. After cell catching, sealing, whole-cell formation, liquid application, recording, and data acquisition were all performed sequentially and automatically. The intracellular solution contained (in mM): 10 KCl, 110 kF, 10 NaCl, 1 MgCl2, 1 CaCl2, 10 Ethylene Glycol Tetraacetic Acid (EGTA) and 10 HEPES (pH 7.2, osmolarity 280 mOsm), and the extracellular solution (in mM): 140 NaCl, 4 KCl, 2 CaCl2, 1 MgCl2, five glucose, and 10 HEPES (pH 7.4, osmolarity 298 mOsm). Whole-cell experiments were done at −100 mV holding potential, while currents triggered at 0 mV test potential were sampled at 10 kHz (sweeps every 8 s). […]

mNav1.7 = molecular target: T1, mNav1.7 (Mus musculus, UniProt Q62205); assay: automated patch-clamp, mNav1.7 electroporated in HEK293 cells; format: cell-based; conditions: mNav1.7 (Figure 4b)
T1 construct: DYK (FLAG) tag of vector pcDNA3.1+/C-(K)-DYK (C); host or cells: HEK-293T cells, Maxcyte electroporation
Experimental: as §1
(§3) Chips with single-hole and high-resistance 5.14 ± 0.02 MΩ (n = 384) were used for HEK-293 cell recordings. Only cells with seal resistance above 500 MΩ and Rs values <15 MΩ were kept for analyses. All Rs values were compensated at 90%. Voltage pulses and whole-cell recordings were achieved using the PatchControl384 v1.5.3 software (Nanion Technologies, Munich, Germany) and the Biomek v1.0 interface (Beckman Coulter, Villepinte, France). […]

[3] = test system: mice (adult female Swiss); conditions: mouse, in vivo
Text: (§4) The study was experimentally designed to have group sizes of at least six animals per group, with intravenous injection as an exclusion criterion. In addition, randomization and blinding (one of the two experimenters being blind to treatment group) were undertaken in all animal experiments. […] Prior to testing, each mouse underwent a 20-min acclimation to the experimental laboratory environment (in its home cage).

hNav1.4 = assay: automated patch-clamp, hNav1.4; format: cell-based, human
Text: as §2, with “s). Compounds were prepared at various concentrations in the extracellular solution supplemented with 0.3% BSA and distributed in 384-well plates according to a pre-designed template.” for “s).”

[4] = test system: TTX-R Na^+ currents from adult mouse DRG neurons
[5] = test system: mice (adult female Swiss); assay: hot-plate test (heat sensitivity); format: in vivo, mouse; conditions: 55.0°C
Text: as §4
Each mouse, injected or not with PBS +0.1% BSA or toxin solution in the right hind limb, was put on a hot-plate (HCP No. 35150, Ugo Basile, Italy) set at the temperature of 55.0°C ± 0.2°C 15–30 min after limb injection. The measured parameter as the first pain-related manifestation was the latency (in seconds) for the animal to shake the right hind limb ([Deuis et al., 2017]). This latency, considered as a painful response to heat, was recorded simultaneously by two observers (one being blind to treatment group) with a timer integrated into the set-up. A maximal cut-off time of 30 s was used to prevent tissue damage.

[6] = test system: mice (adult female Swiss); assay: automated von Frey test (tactile sensitivity); format: in vivo, mouse
hNav1.5 = assay: automated patch-clamp, hNav1.5; format: cell-based, human; conditions: up to 3,300 nM (Figure 4c)
Experimental: as §1, §3

C57Bl6 mice = conditions: mouse, in vivo, ip
ryanodine receptor = conditions: ref Ronjat et al., 2016; cited from earlier work
Nav1.7 = conditions: cited from earlier work
N-type calcium channels = conditions: cited from earlier work

Chain of hNav1.7 (Q15858 whole entry): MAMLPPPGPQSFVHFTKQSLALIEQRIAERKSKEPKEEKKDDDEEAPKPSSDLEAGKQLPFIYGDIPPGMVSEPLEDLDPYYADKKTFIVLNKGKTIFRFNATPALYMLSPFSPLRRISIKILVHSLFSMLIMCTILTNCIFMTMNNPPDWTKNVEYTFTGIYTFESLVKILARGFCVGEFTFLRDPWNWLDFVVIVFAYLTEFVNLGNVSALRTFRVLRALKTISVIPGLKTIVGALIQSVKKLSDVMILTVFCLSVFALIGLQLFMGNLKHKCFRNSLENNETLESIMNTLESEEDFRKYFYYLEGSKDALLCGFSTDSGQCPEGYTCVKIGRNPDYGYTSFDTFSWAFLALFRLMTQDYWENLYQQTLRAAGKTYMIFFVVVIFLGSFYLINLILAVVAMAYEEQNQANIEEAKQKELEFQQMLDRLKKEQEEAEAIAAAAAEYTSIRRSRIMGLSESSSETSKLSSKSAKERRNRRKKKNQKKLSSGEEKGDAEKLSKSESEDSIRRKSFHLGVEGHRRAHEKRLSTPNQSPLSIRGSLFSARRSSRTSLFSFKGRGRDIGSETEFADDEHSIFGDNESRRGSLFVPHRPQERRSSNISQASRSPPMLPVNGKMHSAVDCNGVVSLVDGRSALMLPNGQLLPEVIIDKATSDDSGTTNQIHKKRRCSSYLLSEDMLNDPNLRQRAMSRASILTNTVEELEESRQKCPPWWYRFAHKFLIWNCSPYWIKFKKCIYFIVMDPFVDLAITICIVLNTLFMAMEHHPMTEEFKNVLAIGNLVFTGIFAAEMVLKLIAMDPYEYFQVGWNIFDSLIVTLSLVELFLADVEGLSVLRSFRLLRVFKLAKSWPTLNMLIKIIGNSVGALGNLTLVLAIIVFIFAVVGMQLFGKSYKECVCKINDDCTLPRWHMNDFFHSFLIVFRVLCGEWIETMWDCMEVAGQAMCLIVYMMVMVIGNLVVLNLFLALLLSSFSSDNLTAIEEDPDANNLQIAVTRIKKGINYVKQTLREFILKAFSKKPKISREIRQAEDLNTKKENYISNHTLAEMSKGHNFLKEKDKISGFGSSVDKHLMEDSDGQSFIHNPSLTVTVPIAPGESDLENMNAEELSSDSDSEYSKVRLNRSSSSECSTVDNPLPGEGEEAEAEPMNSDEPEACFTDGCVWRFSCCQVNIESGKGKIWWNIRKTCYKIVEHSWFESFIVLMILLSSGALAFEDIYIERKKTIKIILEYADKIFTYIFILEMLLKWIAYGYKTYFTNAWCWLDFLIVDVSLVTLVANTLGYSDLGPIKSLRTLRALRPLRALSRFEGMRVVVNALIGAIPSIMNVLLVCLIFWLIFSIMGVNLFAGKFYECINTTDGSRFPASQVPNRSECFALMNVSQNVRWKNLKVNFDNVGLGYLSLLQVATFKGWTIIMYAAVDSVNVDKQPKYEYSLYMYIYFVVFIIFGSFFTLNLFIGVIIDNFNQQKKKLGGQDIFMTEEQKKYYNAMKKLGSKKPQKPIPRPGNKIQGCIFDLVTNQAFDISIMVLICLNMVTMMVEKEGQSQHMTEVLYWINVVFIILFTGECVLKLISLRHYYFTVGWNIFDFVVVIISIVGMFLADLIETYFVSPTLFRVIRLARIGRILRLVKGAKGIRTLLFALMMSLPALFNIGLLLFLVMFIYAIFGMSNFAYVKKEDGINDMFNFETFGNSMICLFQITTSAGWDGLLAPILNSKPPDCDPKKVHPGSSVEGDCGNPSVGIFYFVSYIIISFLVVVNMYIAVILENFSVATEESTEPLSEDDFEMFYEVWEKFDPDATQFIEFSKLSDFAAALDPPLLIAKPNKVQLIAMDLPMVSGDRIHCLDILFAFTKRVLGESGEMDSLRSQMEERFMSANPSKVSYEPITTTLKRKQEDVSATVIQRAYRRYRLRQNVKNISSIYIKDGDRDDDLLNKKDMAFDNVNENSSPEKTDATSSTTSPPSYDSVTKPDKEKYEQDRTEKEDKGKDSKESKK
T1 sequence (Q62205 whole entry): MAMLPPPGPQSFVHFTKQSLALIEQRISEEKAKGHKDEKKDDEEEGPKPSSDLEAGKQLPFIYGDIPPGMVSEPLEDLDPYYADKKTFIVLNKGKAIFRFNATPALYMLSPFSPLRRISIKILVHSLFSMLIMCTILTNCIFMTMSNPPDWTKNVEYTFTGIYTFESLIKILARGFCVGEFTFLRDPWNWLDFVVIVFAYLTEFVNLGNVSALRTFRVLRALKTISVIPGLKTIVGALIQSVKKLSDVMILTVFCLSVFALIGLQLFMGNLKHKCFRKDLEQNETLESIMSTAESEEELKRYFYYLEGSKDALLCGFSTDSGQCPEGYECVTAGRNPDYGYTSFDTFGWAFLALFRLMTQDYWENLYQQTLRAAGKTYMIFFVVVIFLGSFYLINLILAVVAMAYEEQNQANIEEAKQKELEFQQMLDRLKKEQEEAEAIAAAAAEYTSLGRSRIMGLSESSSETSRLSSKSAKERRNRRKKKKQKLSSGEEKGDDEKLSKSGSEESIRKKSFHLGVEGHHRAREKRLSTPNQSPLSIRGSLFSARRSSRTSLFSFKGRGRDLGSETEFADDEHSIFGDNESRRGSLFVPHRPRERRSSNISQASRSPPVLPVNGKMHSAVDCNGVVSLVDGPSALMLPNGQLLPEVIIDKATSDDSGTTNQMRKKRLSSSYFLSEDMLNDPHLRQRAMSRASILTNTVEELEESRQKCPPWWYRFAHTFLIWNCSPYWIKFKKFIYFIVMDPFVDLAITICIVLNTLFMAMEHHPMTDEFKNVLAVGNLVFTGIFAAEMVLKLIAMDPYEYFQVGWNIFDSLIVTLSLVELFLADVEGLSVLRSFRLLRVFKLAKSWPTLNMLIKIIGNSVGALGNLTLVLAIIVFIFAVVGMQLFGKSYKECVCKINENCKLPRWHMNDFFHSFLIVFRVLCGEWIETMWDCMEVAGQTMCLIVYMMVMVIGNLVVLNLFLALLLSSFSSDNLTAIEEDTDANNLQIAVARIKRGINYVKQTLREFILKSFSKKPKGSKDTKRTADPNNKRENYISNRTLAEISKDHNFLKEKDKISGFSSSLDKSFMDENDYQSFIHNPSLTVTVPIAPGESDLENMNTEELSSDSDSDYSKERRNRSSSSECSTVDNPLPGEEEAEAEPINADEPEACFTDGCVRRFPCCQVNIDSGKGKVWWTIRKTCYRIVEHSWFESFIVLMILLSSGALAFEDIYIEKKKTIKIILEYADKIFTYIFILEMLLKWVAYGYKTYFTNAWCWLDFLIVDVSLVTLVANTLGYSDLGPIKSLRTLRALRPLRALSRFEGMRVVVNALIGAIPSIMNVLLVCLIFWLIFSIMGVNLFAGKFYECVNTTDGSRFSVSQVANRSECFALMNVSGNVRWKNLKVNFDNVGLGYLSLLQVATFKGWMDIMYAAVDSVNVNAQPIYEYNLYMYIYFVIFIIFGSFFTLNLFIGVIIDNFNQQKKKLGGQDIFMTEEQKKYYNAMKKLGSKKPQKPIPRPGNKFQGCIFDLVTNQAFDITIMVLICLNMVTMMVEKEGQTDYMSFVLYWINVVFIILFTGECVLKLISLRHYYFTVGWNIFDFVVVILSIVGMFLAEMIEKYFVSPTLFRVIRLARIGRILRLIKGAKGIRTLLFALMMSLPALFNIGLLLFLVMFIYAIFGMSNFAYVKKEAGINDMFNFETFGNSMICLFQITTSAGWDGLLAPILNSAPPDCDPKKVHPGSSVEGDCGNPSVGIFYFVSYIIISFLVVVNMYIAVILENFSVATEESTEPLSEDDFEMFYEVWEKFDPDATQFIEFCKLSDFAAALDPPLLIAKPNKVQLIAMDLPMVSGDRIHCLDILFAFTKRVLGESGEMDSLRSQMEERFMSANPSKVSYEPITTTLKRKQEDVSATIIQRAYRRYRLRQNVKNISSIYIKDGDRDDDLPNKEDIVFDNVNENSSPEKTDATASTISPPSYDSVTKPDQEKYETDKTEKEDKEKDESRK

With `NC1=N[C@H](O)[C@H]2[C@H]3O[C@]4(O)O[C@@H]([C@@H](O)[C@@]2(N1)[C@@H]4O)[C@]3(O)CO` [TTX, tetrodotoxin, reference compound] as the compound, how does the “Na+ current remaining (% of initial peak amplitude)” value [1] read?
Its value is 64.8% ± 4.2.

And the “Na+ current remaining (% of initial peak amplitude)” value [2]?
Its value is 9.5% ± 1.7.

Which results are given for `CC[C@H](C)[C@H](NC(=O)[C@H](CCC(N)=O)NC(=O)[C@H](Cc1ccc(O)cc1)NC(=O)[C@H](CCCCN)NC(=O)[C@@H]1CSSC[C@@H]2NC(=O)[C@H](CCC(N)=O)NC(=O)[C@H](CC(=O)O)NC(=O)[C@H](CC(N)=O)NC(=O)[C@H](CO)NC(=O)[C@@H]3CCCN3C(=O)[C@H](CC(N)=O)NC(=O)[C@@H]3CSSC[C@H](NC(=O)[C@H](C(C)C)NC(=O)[C@H](CC(C)C)NC(=O)[C@H](CCCCN)NC(=O)[C@H](CO)NC(=O)[C@H](CO)NC(=O)[C@H](CCCCN)NC(=O)[C@H](CSSC[C@H](NC(=O)[C@@H](N)CCC(=O)O)C(=O)N[C@@H](CC(C)C)C(=O)N[C@@H](CCC(=O)O)C(=O)N[C@@H]([C@@H](C)CC)C(=O)N[C@@H](Cc4ccccc4)C(=O)N[C@@H](CCCCN)C(=O)N[C@@H](C)C(=O)N3)NC2=O)C(=O)N[C@@H](CO)C(=O)N[C@@H](CCCNC(=N)N)C(=O)N[C@@H](CCCCN)C(=O)N[C@@H]([C@@H](C)O)C(=O)N[C@@H](CCCNC(=N)N)C(=O)N[C@@H](Cc2c[nH]c3ccccc23)C(=O)N1)C(=O)NCC(=O)O` [sHwTx-IV GCOOH]?
fold less potent than HwTx-IV on hNav1.7 (hNav1.7): 16 fold; nH (Hill number) (hNav1.7; hNav1.7 (Figure 4c)): −0.98; nH (Hill number) (hNav1.7; hNav1.7 in CHO cells (Figure 4a)): −0.97; nH (Hill number) (mNav1.7): −0.90; death [3]: absence of death; toxicity (behaviour) after intraplantar injection [3]: no abnormal mice behavior; inhibition of hNav1.4 (hNav1.4): not affected; IC50 [4]: 2 µM; nH (Hill number) [4]: 0.8; block of TTX-R Na+ currents ([4]; 130 nM): largely sparring; reaction time to heat (latency to shake hind limb) ([5]; 10–98 nmol/kg intraplantar, 15–30 min, versus vehicle, P < 0.050): significant (P < 0.050) increase in the reaction time to heat; threshold analgesic dose, hot-plate ([5]; intraplantar): 10 nmol/kg; force intensity for hind limb withdrawal ([6]; 98 nmol/kg intraplantar, 15–30 min, versus vehicle, P < 0.010): significantly (P < 0.010) increased; dose efficiency difference between both peptides, von Frey ([6]; 14–98 nmol/kg intraplantar): no dose efficiency difference could be observed between both peptides; inhibition of hNav1.5 (hNav1.5): no inhibition up to 3,300 nM; animals with signs of hindlimb weakness (C57Bl6 mice): Seven out of 10; death (C57Bl6 mice): none of the animals died; distance travelled (C57Bl6 mice): unaffected; duration of activity (C57Bl6 mice): unaffected; number of movements, 60 min (C57Bl6 mice): accentuated 60 min later; number of movements, first 10 min (C57Bl6 mice): reduction in the number of movements; rearing events (C57Bl6 mice): reduced; signs of suffering (C57Bl6 mice): no signs of suffering; IC50 [2]: 0.014 µM; TTX-S peak current amplitude after wash-out [2]: −3.2 ± 0.7 nA; TimeA (10% to 90% current increase, activation) [2]: 0.31 ± 0.06 ms and 0.27 ± 0.07 ms and 0.28 ± 0.11 ms; TimeI (90% to 10% current decrease, inactivation) [2]: 6.93 ± 1.23 ms and 6.66 ± 1.42 ms and 6.59 ± 1.24 ms; effect on activation or inactivation kinetics [2]: did not alter activation or inactivation kinetics; fold more potent on TTX-S DRG currents than on mNav1.7 currents [2]: 11.8 fold; fold more potent than HwTx-IV on mouse DRG TTX-S Na+ currents [2]: 9.5 fold; nH (Hill number) [2]: 0.7; reversibility of effect on TTX-S current [2]: reversible; slope (kG) of conductance-voltage curves [2]: slight, but significant (P < 0.002), changes; VI50% (voltage of 50% inactivation) ([2]; 13 nM, n = 4): −82 ± 2 mV; VA50% (voltage of 50% maximal conductance) ([2]; 13 nM, n = 5): −32 ± 1 mV; block of TTX-S Na+ currents ([2]; 130 nM): potently blocked; time to stationary TTX-S peak current block ([2]; 130 nM, n = 8): 2.6 ± 0.6 min

With “maurocalcin: a scorpion venom peptide (GDCLPHLKLCKENKDCCSKKCKRRGTNIEKRCR; UniProt P60254 1-33, looked up)” as the compound, how does the “effect of phosphorylation by protein kinase A” value (ryanodine receptor) read?
Its value is “converts the peptide from an allosteric activator to a ryanodine receptor blocker”.

Which results are given for “protoxin-II: protoxin-II, Nav1.7 selective to a large extent [reference compound]”?
Nav1.7 selectivity (Nav1.7): Nav1.7 selective to a large extent; inhibition of Na+ current ([2]; 0.01 µM): 80%

With ω-conotoxin MVIIA as the compound, how does the “fold better affinity than non-amidated ω-conotoxin MVIIA-Gly-COOH” value (N-type calcium channels) read?
The value was 10 fold.
